The values that follow come from ChEMBL document CHEMBL4400531, “Structure-Based Design of N-(5-Phenylthiazol-2-yl)acrylamides as Novel and Potent Glutathione S-Transferase Omega 1 Inhibitors” (J Med Chem, 2019).

The term IC50 denotes the concentration that inhibits the measured activity by half. A lower IC50 goes with inhibition by little substance.

A short description of series [1]: Stability of the compound in 20% acetonitrile/PBS buffer at room temperature by LC-MS/MS analysis. It counts as physicochemical.
Series [2] can be described thus: Half life in mouse liver microsomes at 1 uM in presence of NADPH by LC-MS/MS analysis. It counts as ADME, Microsome. (In general: Liver microsomes are vesicles of endoplasmic reticulum, rich in cytochrome P450 enzymes.)
Series [3] can be described thus: Half life in human liver microsomes at 1 uM in presence of NADPH by LC-MS/MS analysis. It counts as ADME, Microsome.
In series [4] the target is T1, Glutathione S-transferase omega-1 (Homo sapiens, UniProt P78417).
T1 sequence (P78417 whole entry): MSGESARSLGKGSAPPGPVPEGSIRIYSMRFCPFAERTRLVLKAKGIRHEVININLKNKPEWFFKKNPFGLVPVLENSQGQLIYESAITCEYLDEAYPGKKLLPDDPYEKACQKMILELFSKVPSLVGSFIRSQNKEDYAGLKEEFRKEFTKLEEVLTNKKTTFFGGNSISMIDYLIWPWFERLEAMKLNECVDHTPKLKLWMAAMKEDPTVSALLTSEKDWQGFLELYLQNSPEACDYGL
The experiment in a line: Inhibition of CMFDA binding to human N-terminal 6x-His-tagged GSTO1-1 preincubated for 30 mins followed by CMFDA addition and measured after 30 mins by in-gel fluorescence binding assay.

The test system of a further series is HCT-116. The experiment in a line: cells. Particulars: Homo sapiens, HCT-116, 72 h.
For the next series, the system named is HT-29. The experiment in a line: cells. Particulars: Homo sapiens, HT-29, 72 h.
Series [5] is described as follows: Metabolic stability in mouse liver microsomes at 1 uM in presence of NADPH incubated for 0 mins by LC-MS/MS analysis. In kind it is ADME, Microsome. Particulars: read-out: Stability.
The nature of series [6]: Metabolic stability in human liver microsomes at 1 uM in presence of NADPH incubated for 0 mins by LC-MS/MS analysis. It counts as ADME, Microsome. Particulars: read-out: Stability.
Series [7] in a line: Metabolic stability in mouse liver microsomes at 1 uM in presence of NADPH incubated for 5 mins by LC-MS/MS analysis. In kind it is ADME, Microsome. To be noted: read-out: Stability.
Series [8] can be described thus: Metabolic stability in mouse liver microsomes at 1 uM in presence of NADPH incubated for 10 mins by LC-MS/MS analysis. In kind it is ADME, Microsome. To be noted: read-out: Stability.
A short description of series [9]: Metabolic stability in mouse liver microsomes at 1 uM in presence of NADPH incubated for 15 mins by LC-MS/MS analysis. It counts as ADME, Microsome. Particulars: read-out: Stability.
A short description of series [10]: Metabolic stability in mouse liver microsomes at 1 uM in presence of NADPH incubated for 30 mins by LC-MS/MS analysis. It counts as ADME, Microsome. To be noted: read-out: Stability.
A short description of series [11]: Metabolic stability in mouse liver microsomes at 1 uM in presence of NADPH incubated for 45 mins by LC-MS/MS analysis. It counts as ADME, Microsome. Particulars: read-out: Stability.
Series [12] can be described thus: Metabolic stability in mouse liver microsomes at 1 uM in presence of NADPH incubated for 60 mins by LC-MS/MS analysis. It counts as ADME, Microsome. Particulars: read-out: Stability.
A short description of series [13]: Metabolic stability in human liver microsomes at 1 uM in presence of NADPH incubated for 5 mins by LC-MS/MS analysis. In kind it is ADME, Microsome. To be noted: read-out: Stability.
Series [14] can be described thus: Metabolic stability in human liver microsomes at 1 uM in presence of NADPH incubated for 10 mins by LC-MS/MS analysis. It counts as ADME, Microsome. To be noted: read-out: Stability.
A short description of series [15]: Metabolic stability in human liver microsomes at 1 uM in presence of NADPH incubated for 15 mins by LC-MS/MS analysis. It counts as ADME, Microsome. To be noted: read-out: Stability.
A short description of series [16]: Metabolic stability in human liver microsomes at 1 uM in presence of NADPH incubated for 30 mins by LC-MS/MS analysis. It counts as ADME, Microsome. Particulars: read-out: Stability.
Series [17] can be described thus: Metabolic stability in human liver microsomes at 1 uM in presence of NADPH incubated for 45 mins by LC-MS/MS analysis. To be noted: read-out: Stability. It counts as ADME, Microsome.
Series [18] in a line: Metabolic stability in human liver microsomes at 1 uM in presence of NADPH incubated for 60 mins by LC-MS/MS analysis. To be noted: read-out: Stability. In kind it is ADME, Microsome.

Some results are limits rather than exact numbers.

Description for HCT-116: Antiproliferative activity against human HCT116 cells after 72 hrs by MTT assay

For `C=CC(=O)Nc1nc(-c2ccc(Cl)cc2)cs1`, the Stability entry in series [1] was “Stable”. In addition, the t1/2 in series [2] is reported as 3.21 min; in series [3], 9.52 min.
With `C=CC(=O)Nc1cnn(Cc2ccccc2)c1`, the values for the IC50 (in series [4]; in the series with HCT-116; in the series on HT-29) were over 10 µM, over 30 µM and over 30 µM, respectively.
Take `C=CC(=O)Nc1cnn(-c2ccccc2)c1`: the IC50 in series [4] is over 10 µM; with HCT-116, over 30 µM; with HT-29, over 30 µM.
In the case of `COC(=O)/C=C/CNc1ccc(Cl)c(S(=O)(=O)N(C)C)c1`, the IC50 in series [4] was over 10 µM; with HCT-116, over 30 µM; with HT-29 it was over 30 µM.
As to `C=CC(=O)N1CCC(Cc2ccccc2)CC1`, the IC50 in series [4] was over 10 µM; in the series with HCT-116, over 30 µM; in the series with HT-29, over 30 µM.
On to `C=CC(=O)Nc1nc(-c2ccc(O)cc2)cs1`, for which the values for the IC50 (in series [4]; in the series on HCT-116; in the series on HT-29) were over 10 µM, 7.1 to 12.5 µM and 6.1 to 13.5 µM, respectively.
Regarding `C=CC(=O)Nc1nc(-c2ccccc2OC)cs1`, the IC50 is over 10 µM in series [4], over 30 µM in the series with HCT-116 and over 30 µM in the series on HT-29.
Turning to `C=CC(=O)N1CCC(c2ccccc2)CC1`, the IC50 was over 10 µM in series [4], over 30 µM with HCT-116 and over 30 µM in the series with HT-29.
For the compound `C=CC(=O)N(Cc1cc(C)no1)c1nc(-c2ccccc2O)cs1`, the remaining at 0 h, 1 µM in [5] and in series [6] was 100% in each case. In addition, the Stability result in [1] is “Stable”. In addition, the remaining at 5 min, 1 µM in [7] was determined as 16%; in series [13], 14.8%. The remaining at 10 min, 1 µM in series [8] was found to be 12%; in series [14], 7.41%. Further, the remaining at […], 1 µM in series [9] amounted to 12%; in series [15] it was 3.7%. The values for the remaining at 0.5 h, 1 µM in series [10] and in series [16] were 8% and 3.7%, respectively. For the same compound, the remaining at 0.75 h, 1 µM was found to be 4% in [11] and 3.7% in series [17]. Further, the remaining at 1 h, 1 µM came out at 4% in series [12] and 3.7% in series [18]. Besides, the values for the t1/2 in series [2] and in [3] were 1.81 min and 1.89 min, respectively.
